Reference: patent US20230286970A1, “NOVEL OXADIAZOLE-BASED SELECTIVE HDAC6 INHIBITORS” (ITALFARMACO S.P.A., priority 2020, published 2023)

Legend:
Stability in rat plasma = details: after 4 hours, 37° C.
Procedure: In order to evaluate the stability to circulating enzymes, test compounds were incubated in human and rat plasma at 37° C. in a thermostated oscillating bath. Each test compound was incubated at μM concentration (50 μM when the samples were analysed by UV/HPLC, 1 or 2 μM when the samples were analysed by LC-MS/MS) for 0, 15, 30 minutes and 1, 2 and 4 hours. The reaction was stopped placing samples on ice bath and adding acidified acetonitrile. After centrifugation (10 minutes at 14000 rpm) an aliquot of the supernatant was diluted with water, filtered with 0.45 μm regenerated cellulose syringe filters and injected in HPLC-UV or in LC-MS/MS. The percentage of the remaining amount at the various incubation times with respect to the initial amount were calculated. The half-life in plasma was also calculated.

[1] = Stability to Phase I metabolism in rat S9 liver fraction; details: after 90 minutes, 37° C.
Procedure: (§1) Test compounds were incubated in rat and human liver S9 fraction at 37° C. up to 90 minutes in order to evaluate their stability to Phase I metabolism by hepatic enzymes. Each test compound was incubated at μM concentration (50 μM when the samples were analysed by UV/HPLC, 1 or 2 μM when the samples were analysed by LC-MS/MS) with S9 fraction (protein content 2 mg/m L) in 100 mM phosphate buffer (pH 7.4), 3.3 mM MgCl2 and 1.3 mM NADPH for 0, 10, 30, 60 and 90 minutes at 37° C. in a thermostated oscillating bath. The reaction was stopped placing samples on ice bath and adding acidified acetonitrile. After centrifugation (10 minutes at 14000 rpm) an aliquot of the supernatant was diluted with water, filtered with 0.45 μm regenerated cellulose syringe filters and injected in HPLC-UV or in LC-MS/MS. The percentage of the remaining amount at the various incubation times with respect to the initial amount were calculated.

[2] = Stability in human plasma; details: after 4 hours, 37° C.
recombinant human HDAC1 = recombinant human HDAC1 (Homo sapiens (Human), UniProt Q13547); test: Enzymatic screening, HDAC1 inhibition (fluorogenic FdL_G substrate); format: biochemical
Outline: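 Recombinant human HDAC1 inhibition was measured fluorometrically using the FLUOR DE LYS-Green (FdL_G) substrate. Compounds at 8 doses (1% DMSO final) in Tris-HCl pH 8 buffer with NaCl, Tween-20 and glycerol were preincubated in triplicate with enzyme and 1 mg/mL BSA, then given substrate. Developer I plus 2 μM TSA was added, and fluorescence read after 25 minutes in the dark.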

[3] = Stability to Phase I metabolism in human S9 liver fraction; details: after 90 minutes, 37° C.
Procedure: as §1

recombinant human HDAC6 = recombinant human HDAC6 (Homo sapiens (Human), UniProt Q9UBN7); test: Enzymatic screening, HDAC6 inhibition (fluorogenic FdL_G substrate); format: biochemical
Outline: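 Enzyme was preincubated with compound (8 doses, triplicate, 1% DMSO) in 25 mM Tris-HCl pH 8, 130 mM NaCl, 0.05% Tween-20, 10% glycerol, with BSA. A FLUOR DE LYS-Green substrate was then added, and fluorescence was read after developer plus 2 μM TSA.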

[4] = system: α-tubulin acetylation in 697 cell line; test: In vitro α-tubulin acetylation in 697 cell line (ELISA); format: cell-based; details: 16 hours, read-out: fold increase @ 1 uM TubAc (ratio of acetylated tubulin and total tubulin towards control)
Procedure: The in vitro α-tubulin acetylation determination was evaluated on B 697 promyelocytic cell line.
The test molecules were diluted from 20 mM stock solution in DMSO with RPMI 10% FCS+0.01% DMSO medium at 20× concentration compared to the final concentration, added to the cells (15×10^6 cells in a total volume of 30 mL in RPMI medium 10% FCS+0.01% DMSO) to obtain the final concentrations of 1000, 333, 111, 37 nM and incubated at 37° C., 5% CO2 for 16 hours.
At the end of the incubation period, 5×10^6 cells were taken from each sample, centrifuged for 5 minutes at 1100 rpm and washed in 0.9% NaCl at 4° C. The resulting pellet was lysed by treating at 4° C. for 30 minutes with 150 μl of Complete Lysis-M buffer containing protease inhibitors (Complete Lysis-M Roche+Complete Tablets, Mini Easypack, cat: 4719956001) and phosphatase inhibitor cocktails (PhosStop Easypack, Roche, cat: 4906837001), then centrifuged 10 minutes at 14,000 rpm (20817×g). 0.3 μg of supernatant (total protein extract) were diluted in 100 μl of 1×PBS and immobilized in Maxisorp F96 NUN-IMMUNO Plate (Nunc MaxiSorp flat-bottom, Nunc, cat: 442404) at room temperature overnight. Plates were washed twice with Wash Buffer (PBS1×+0.005% tween 20) and saturated for 1 hour at room temperature with 300 μL of 1×PBS containing 10% FCS. After washing twice with Wash Buffer, the plates were incubated for two hours at room temperature in the presence of anti-acetylated-α-tubulin antibody (Monoclonal Anti-acetylated-tubulin clone 6-11B-1, mouse ascites fluid, Sigma, cat: T6793), 100 μl/well diluted 1:1000 in 1×PBS containing 10% FCS) or with total anti-α-tubulin antibody (Monoclonal Anti-alpha-tubulin produced in mouse, Sigma, cat: T6074). Following washing of the pates 5 times with Wash Buffer the secondary antibody conjugated with the enzyme HRP (Goat anti-Mouse IgG, IgM, IgA (H+L), Thermo Fisher Scientific, cat: A10668), diluted 1:1000 in 1×PBS+10% FBS was added at the volume of 100 μl/well.
After washing 4 times, 100 μl/well of TMB substrate kit was added for 10 minutes at room temperature in the dark. The reaction was stopped by adding 50 μl of 2N H2SO4. The plates were read at Multiskan Spectrum spectrophotometer at a wavelength of 450 nm.
The degree of acetylation was calculated by dividing the absorbance obtained for acetylated α-tubulin by the absorbance of total tubulin.
The results of tubulin acetylation, expressed as fold increase of ratio of acetylated α-tubulin/total α-tubulin, of each sample relative to the control sample (untreated) are summarized in table 6.

Chain of recombinant human HDAC6 (Q9UBN7 whole entry): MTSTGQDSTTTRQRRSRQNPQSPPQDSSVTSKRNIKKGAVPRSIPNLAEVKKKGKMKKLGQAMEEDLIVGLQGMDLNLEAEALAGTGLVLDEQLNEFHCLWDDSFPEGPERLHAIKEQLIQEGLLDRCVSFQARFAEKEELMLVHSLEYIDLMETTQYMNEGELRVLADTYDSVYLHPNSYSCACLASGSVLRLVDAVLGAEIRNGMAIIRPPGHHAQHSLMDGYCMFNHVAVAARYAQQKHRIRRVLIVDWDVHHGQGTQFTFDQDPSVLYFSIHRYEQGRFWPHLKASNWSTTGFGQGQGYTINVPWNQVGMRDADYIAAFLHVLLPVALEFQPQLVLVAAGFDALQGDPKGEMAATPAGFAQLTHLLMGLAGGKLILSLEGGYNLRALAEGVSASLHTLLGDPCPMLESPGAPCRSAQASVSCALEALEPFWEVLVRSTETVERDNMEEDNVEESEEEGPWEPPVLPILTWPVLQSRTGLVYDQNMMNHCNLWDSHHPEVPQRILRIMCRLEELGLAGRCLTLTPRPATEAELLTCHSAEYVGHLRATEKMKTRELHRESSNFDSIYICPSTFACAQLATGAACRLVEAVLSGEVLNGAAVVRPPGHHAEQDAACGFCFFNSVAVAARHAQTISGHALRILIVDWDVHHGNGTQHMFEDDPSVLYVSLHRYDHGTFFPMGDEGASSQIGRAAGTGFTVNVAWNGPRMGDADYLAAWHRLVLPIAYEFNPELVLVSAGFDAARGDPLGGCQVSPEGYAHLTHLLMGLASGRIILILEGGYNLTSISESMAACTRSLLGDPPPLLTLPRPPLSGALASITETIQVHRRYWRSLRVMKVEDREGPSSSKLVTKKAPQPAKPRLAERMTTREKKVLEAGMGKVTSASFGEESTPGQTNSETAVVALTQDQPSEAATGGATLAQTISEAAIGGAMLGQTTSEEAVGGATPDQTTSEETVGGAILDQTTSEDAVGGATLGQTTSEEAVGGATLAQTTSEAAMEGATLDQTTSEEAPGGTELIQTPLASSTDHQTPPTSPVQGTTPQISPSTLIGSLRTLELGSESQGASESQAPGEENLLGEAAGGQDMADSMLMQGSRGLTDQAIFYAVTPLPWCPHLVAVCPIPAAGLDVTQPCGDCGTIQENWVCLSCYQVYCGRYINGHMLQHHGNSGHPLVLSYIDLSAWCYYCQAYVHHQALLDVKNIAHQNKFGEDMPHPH
Chain of recombinant human HDAC1 (Q13547 whole entry): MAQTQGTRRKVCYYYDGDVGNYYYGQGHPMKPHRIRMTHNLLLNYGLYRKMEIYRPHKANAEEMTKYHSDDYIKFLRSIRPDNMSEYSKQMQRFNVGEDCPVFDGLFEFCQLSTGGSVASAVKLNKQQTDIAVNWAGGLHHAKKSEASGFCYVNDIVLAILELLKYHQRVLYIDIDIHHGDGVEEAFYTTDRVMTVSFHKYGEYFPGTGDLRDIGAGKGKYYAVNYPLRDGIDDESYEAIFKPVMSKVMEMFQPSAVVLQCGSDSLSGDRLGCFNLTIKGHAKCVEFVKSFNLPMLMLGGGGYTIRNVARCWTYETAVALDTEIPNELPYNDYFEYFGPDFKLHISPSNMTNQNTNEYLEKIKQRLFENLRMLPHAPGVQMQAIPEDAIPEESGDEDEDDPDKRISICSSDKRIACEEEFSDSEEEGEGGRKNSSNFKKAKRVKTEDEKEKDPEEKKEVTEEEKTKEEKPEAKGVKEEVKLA

C[C@@H](c1ccc(-c2nnc(C(F)F)o2)cc1)n1cc(-c2cccc(NC(=O)N3CCOCC3)c2)nn1 (stereo in doubt) [compound 104, N-(3-(1-(1-(4-(5-(difluoromethyl)-1,3,4-oxadiazol-2-yl)phenyl)ethyl)-1H-1,2,3-triazol-4-yl)phenyl)morpholine-4-carboxamide]
residual percentage in RAT PLASMA (Stability in rat plasma): 87% | residual percentage in RAT S9 FRACTION [1]: 78% | residual percentage in HUMAN PLASMA [2]: 92% | IC50 (recombinant human HDAC1): > 200000 nM | residual percentage in HUMAN S9 FRACTION [3]: 86% | IC50 (recombinant human HDAC6): 40 nM | fold induction at 1 µM [4]: 15

C[C@H](c1ccc(-c2nnc(C(F)F)o2)cn1)n1cc(-c2ccc(N)nc2)nn1 [Compd. 32, (R)-5-(1-(1-(5-(5-(difluoromethyl)-1,3,4-oxadiazol-2-yl)pyridin-2-yl)ethyl)-1H-1,2,3-triazol-4-yl)pyridin-2-amine]
residual percentage in RAT PLASMA (Stability in rat plasma): 67% | residual percentage in RAT S9 FRACTION [1]: 91% | residual percentage in HUMAN PLASMA [2]: 97% | IC50 (recombinant human HDAC1): > 200000 nM | residual percentage in HUMAN S9 FRACTION [3]: 97% | IC50 (recombinant human HDAC6): 14 nM | fold induction at 1 µM [4]: 31

CN1CCN(C(=O)Nc2cccc(-c3cn(Cc4ccc(-c5nnc(C(F)F)o5)cn4)nn3)c2)CC1 [Compd. 51, N-(3-(1-((5-(5-(difluoromethyl)-1,3,4-oxadiazol-2-yl)pyridin-2-yl)methyl)-1H-1,2,3-triazol-4-yl)phenyl)-4-methylpiperazine-1-carboxamide]
residual percentage in RAT PLASMA (Stability in rat plasma): 79% | residual percentage in RAT S9 FRACTION [1]: 62% | residual percentage in HUMAN PLASMA [2]: 90% | IC50 (recombinant human HDAC1): > 200000 nM | residual percentage in HUMAN S9 FRACTION [3]: 90% | IC50 (recombinant human HDAC6): 22 nM | fold induction at 1 µM [4]: 26

Nc1ccc(-c2cn(C(CN3CCCC3)c3ccc(-c4nnc(C(F)F)o4)cc3)nn2)cn1 (centres unmarked) [Compd. 124, 5-(1-(1-(4-(5-(difluoromethyl)-1,3,4-oxadiazol-2-yl)phenyl)-2-(pyrrolidin-1-yl)ethyl)-1H-1,2,3-triazol-4-yl)pyridin-2-amine]
residual percentage in RAT PLASMA (Stability in rat plasma): 92% | residual percentage in RAT S9 FRACTION [1]: 96% | residual percentage in HUMAN PLASMA [2]: 94% | IC50 (recombinant human HDAC1): > 200000 nM | residual percentage in HUMAN S9 FRACTION [3]: 91% | IC50 (recombinant human HDAC6): 47 nM | fold induction at 1 µM [4]: 13

CNc1ccc2cc(-c3cn(Cc4ccc(-c5nnc(C(F)F)o5)cn4)nn3)ccc2n1 [compound 34, 6-(1-((5-(5-(difluoromethyl)-1,3,4-oxadiazol-2-yl)pyridin-2-yl)methyl)-1H-1,2,3-triazol-4-yl)-N-methylquinolin-2-amine]
residual percentage in RAT PLASMA (Stability in rat plasma): 69% | residual percentage in RAT S9 FRACTION [1]: 83% | residual percentage in HUMAN PLASMA [2]: 95% | IC50 (recombinant human HDAC1): > 200000 nM | residual percentage in HUMAN S9 FRACTION [3]: 89% | IC50 (recombinant human HDAC6): 15 nM | fold induction at 1 µM [4]: 28

O=C1Nc2cc(-c3cn(Cc4ccc(-c5nnc(C(F)F)o5)cn4)nn3)ccc2NC12CCNCC2 [compound 41, 6′-(1-((5-(5-(difluoromethyl)-1,3,4-oxadiazol-2-yl)pyridin-2-yl)methyl)-1H-1,2,3-triazol-4-yl)-1′,4′-dihydro-3′H-spiro[piperidine-4,2′-quinoxalin]-3′-one]
residual percentage in RAT PLASMA (Stability in rat plasma): 77% | residual percentage in RAT S9 FRACTION [1]: 92% | residual percentage in HUMAN PLASMA [2]: 91% | IC50 (recombinant human HDAC1): 123000 nM | residual percentage in HUMAN S9 FRACTION [3]: 94% | IC50 (recombinant human HDAC6): 19 nM | fold induction at 1 µM [4]: 4

NC(=O)c1cccc(-c2nnn(Cc3ccc(-c4nnc(C(F)F)o4)c(F)c3)n2)c1 [compound 89, 3-(2-(4-(5-(difluoromethyl)-1,3,4-oxadiazol-2-yl)-3-fluorobenzyl)-2H-tetrazol-5-yl)benzamide]
residual percentage in RAT PLASMA (Stability in rat plasma): 82% | residual percentage in RAT S9 FRACTION [1]: 98% | residual percentage in HUMAN PLASMA [2]: 81% | IC50 (recombinant human HDAC1): > 200000 nM | residual percentage in HUMAN S9 FRACTION [3]: 96% | IC50 (recombinant human HDAC6): 34 nM | fold induction at 1 µM [4]: 8

NC(=O)c1ccc(-c2nnn(Cc3ccc(-c4nnc(C(F)F)o4)cc3)n2)cc1 [compound 116, 4-(2-(4-(5-(difluoromethyl)-1,3,4-oxadiazol-2-yl)benzyl)-2H-tetrazol-5-yl)benzamide]
residual percentage in RAT PLASMA (Stability in rat plasma): 75% | residual percentage in RAT S9 FRACTION [1]: 71% | residual percentage in HUMAN PLASMA [2]: 82% | IC50 (recombinant human HDAC1): > 200000 nM | residual percentage in HUMAN S9 FRACTION [3]: 92% | IC50 (recombinant human HDAC6): 44 nM | fold induction at 1 µM [4]: 5
